Assay results as given in patent publication US20090286791A1, “Amide Compounds” (TAKEDA PHARMACEUTICAL COMPANY LIMITED, priority 2001, published 2009).
pIC50: −log10 of the molar value.

Target: T1, human DGAT1 (Homo sapiens, UniProt O75907)
T1 construct: made in house; host or cells: Sf9 insect cells (baculovirus BAC-DGAT1, pFASTBAC1); microsome fraction
T1 sequence (O75907 1-488): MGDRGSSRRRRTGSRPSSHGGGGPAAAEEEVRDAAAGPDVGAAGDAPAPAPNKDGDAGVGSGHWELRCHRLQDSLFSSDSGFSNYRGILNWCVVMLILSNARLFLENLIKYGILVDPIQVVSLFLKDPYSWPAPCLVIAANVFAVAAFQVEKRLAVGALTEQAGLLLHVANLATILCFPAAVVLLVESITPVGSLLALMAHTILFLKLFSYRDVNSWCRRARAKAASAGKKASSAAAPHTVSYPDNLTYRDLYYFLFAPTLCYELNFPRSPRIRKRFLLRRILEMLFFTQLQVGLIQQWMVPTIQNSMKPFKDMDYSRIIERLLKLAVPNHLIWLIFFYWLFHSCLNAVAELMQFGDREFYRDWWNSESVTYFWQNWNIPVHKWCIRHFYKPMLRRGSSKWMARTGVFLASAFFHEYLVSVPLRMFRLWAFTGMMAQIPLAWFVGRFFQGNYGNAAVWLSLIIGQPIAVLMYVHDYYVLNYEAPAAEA
Experiment: DGAT inhibitory activity: [14C]-triglyceride synthesis with DGAT1 high expression Sf9 microsome
Format: biochemical
Settings: 25 μM dioleoylglycerol, 25 μM [14C]-Oleoyl-CoA, 32° C., 20 min, read-out: hDGAT1 IC50
Procedure: The primer nucleotide sequence is shown below.
The PCR reaction was conducted using a KOD-plus kit (TOYOBO). The obtained PCR product was electrophoresed on agarose gel (1%), the DNA fragment amplified by PCR was recovered from the gel, and then digested with restriction enzymes EcoRI and SpeI. […] Furthermore, using BAC-TO-BAC Baculovirus Expression System (Invitrogen), recombinant baculovirus BAC-DGAT1 was prepared.
SF9 cells were sown at 1×10^6 cells/ml on Sf-900II SFM medium (1 L, Invitrogen) containing 10% fetal calf serum (Trace), 50 mg/L gentamicin (Invitrogen) and 0.1% Pluronic F-68 (Invitrogen), and shaking culture was performed using a 2 L volume Erlenmeyer flask at 27° C., 100 rpm. After culturing for 24 hrs, recombinant baculovirus BAC-DGAT1 (6.7 mL) was added, and the mixture was further cultured for 3 days. The culture medium was centrifuged at 2,000 rpm for 5 min to give virus-infected cells. The infected cells were washed with a phosphate buffered saline (Invitrogen), centrifuged under the same conditions, and the cells were preserved at −80° C. The cryopreserved cells were thawed in ice, suspended in buffer A (50 mM Tris buffer (30 mL, pH 7.4) containing 20% glycerol, 0.15 M NaCl) supplemented with Complete Protease Inhibitor (Boehringer), and ruptured 3 times with a Polytron homogenizer (Kinematica) at 20,000 rpm for 30 sec. The Sf9 microsome fractions were obtained by a conventional method and cryopreserved at −80° C. as a DGAT1 high expression Sf9 microsome.
As a DGAT1 reaction buffer, a solution having a composition of 100 mM Tris-HCl (pH 7.5), 250 mM sucrose, 150 mM MgCl2, 0.01% bovine serum albumin (BSA) was used. […] A mixture of 300 μL of chloroform:methanol (=1:2) was added to the reaction mixture to quench the reaction. The reaction mixture was sufficiently mixed and distilled water (200 μL) was added to partition the mixture between a chloroform layer (lower layer) and an aqueous layer (upper layer). […] The developed TLC plate was dried, contacted with a BAS imaging plate (manufactured by FUJIFIIM) and measured with BAS2500 (manufactured by FUJIFILM) 16 hr later to numerically show the amount of [^14C]-triglyceride (TG amount) produced during the reaction. The inhibitory rate was calculated by the following formula:
Inhibitory rate (%)=(1−(TG amount with addition of test compound−blank TG amount)/(control TG amount−blank TG amount))×100
The count of the triglyceride produced in the solution reacted without addition of the compound was used as a “control TG amount”, and the count of the triglyceride produced in the solution reacted without addition of the test compound and DGAT1 high expression Sf9 microsome was used as a “blank TG amount”.

Row | SMILES | pIC50
1 | CCOc1ccc(C(=O)NCCNC(=O)c2cn(-c3cccc(OCC)n3)nc2C(F)(F)F)cc1 [B6, N-(2-(4-ethoxybenzamido)ethyl)-1-(6-ethoxypyridin-2-yl)-3-(trifluorometh-yl)-1H-pyrazole-4-carboxamide] | 6.00 to 7.00
2 | CCOc1ccc(C(=O)NC[C@@H](NC(=O)c2cn(-c3ccccc3)nc2C(F)(F)F)C(=O)OC)cc1 [C15] | 6.00 to 7.00
3 | CN(C)CCNc1ccc(C(=O)NCCNC(=O)c2cn(-c3ccccc3)nc2C(F)(F)F)cn1 [Example A11, 6-(2-(dimethyl-amino)ethylamino)-N-(2-(1-phenyl-3-(trifluoromethyl)-1H-pyrazole-4-carboxamido)ethyl) nicotinamide] | 5.00 to 6.00
4 | O=C(NCCNC(=O)c1cn(-c2ccccc2)nc1C(F)(F)F)c1ccc(-n2cccn2)nc1 [Example A12, N-(2-(1-phenyl-3-(trifluoromethyl)-1H-pyrazole-4-carboxamido)ethyl)-6-(1H-pyrazol-1-yl) nicotinamide] | > 7.00
5 | CN(C)c1ccc(C(=O)NCCNC(=O)c2cn(-c3ccccc3)nc2C(F)(F)F)cn1 [Example A15, 6-(dimethylamino)-N-(2-(1-phenyl-3-(trifluoromethyl)-1H-pyrazole-4-carboxamido)ethyl)nicotinamide] | 6.00 to 7.00
6 | CCCCc1ccc(C(=O)NCCNC(=O)c2cn(-c3ccccc3)nc2C(F)(F)F)nc1 [Example A24, 5-butyl-N-(2-(1-phenyl-3-(trifluoromethyl)-1H-pyrazole-4-carboxamido)ethyl)picolinamide] | 6.00 to 7.00
7 | O=C(NCCNC(=O)c1cn(-c2ccccc2)nc1C(F)(F)F)c1ccc(OCCC(F)(F)F)nc1 [Example A42, N-(2-(1-phenyl-3-(trifluoromethyl)-1H-pyrazole-4-carboxamido)ethyl)-6-(3,3,3-trifluoropropoxy)nicotinamide] | > 7.00
8 | O=C(NCCNC(=O)c1cn(-c2ccccc2)c2ccccc12)c1ccc(OCC(F)(F)F)nc1 [Example A53, 1-phenyl-N-(2-(6-(2,2,2-trifluoroethoxy)nicotinamido)ethyl)-1H-indole-3-carboxamide] | > 7.00
9 | COc1nn(-c2ccccc2)cc1C(=O)NCCNC(=O)c1ccc(OCC(F)(F)F)nc1 [Example A55, N-(2-(3-methoxy-1-phenyl-1H-pyrazole-4-carboxamido)ethyl)-6-(2,2,2-trifluoroethoxy) nicotinamide] | 6.00 to 7.00
10 | CN(C)c1nn(-c2ccccc2)cc1C(=O)NCCNC(=O)c1ccc(OCC(F)(F)F)nc1 [Example A58, N-(2-(3-(dimethylamino)-1-phenyl-1H-pyrazole-4-carboxamido)ethyl)-6-(2,2,2-trifluoroethoxy) nicotinamide] | 5.00 to 6.00
11 | CCCc1cc(CCC)c(C(=O)NCCNC(=O)c2cn(-c3ccccc3)nc2C(F)(F)F)cn1 [Example A76, N-(2-(1-phenyl-3-(trifluoro-methyl)-1H-pyrazole-4-carboxamido)ethyl)-4,6-di-propylnicotinamide] | 6.00 to 7.00
12 | O=C(NCCNC(=O)c1cn(C(=O)c2ccccc2)c2ccccc12)c1ccc(OCC(F)(F)F)nc1 [Example A82, 1-benzoyl-N-(2-(6-(2,2,2-trifluoroethoxy)nicotinamido)ethyl)-1H-indole-3-carboxamide] | > 7.00
13 | O=C(NCCNC(=O)c1cn(-c2ccccc2)nc1C(F)(F)F)c1ccc(S(=O)(=O)c2ccccc2)nc1 [Example A86, N-(2-(1-Phenyl-3-(trifluoromethyl)-1H-pyrazole-4-carboxamido)ethyl)-6-(phenylsulfonyl)nicotinamide] | 6.00 to 7.00
14 | N#Cc1cc(C(=O)NCCNC(=O)c2cn(-c3ccccc3)nc2C(F)(F)F)cnc1OCC(F)(F)F [Example A87, 5-Cyano-N-(2-(1-phenyl-3-(trifluoromethyl)-1H-pyrazole-4-carboxamido)ethyl)-6-(2,2,2-trifluoroethoxy)nicotinamide] | 6.00 to 7.00
15 | O=C(NCCNC(=O)c1cn(-c2ccccc2)nc1C(F)(F)F)c1ccc(-c2ncon2)nc1 [Example A96, 6-(1,2,4-Oxadiazol-3-yl)-N-(2-(1-phenyl-3-(trifluoromethyl)-1H-pyrazole-4-carboxamido)ethyl)nicotinamide] | 6.00 to 7.00
16 | O=C(NCCNC(=O)c1cn(-c2ccccc2)nc1C(F)(F)F)c1ccc(-c2noc(C(F)(F)F)n2)nc1 [Example A98, N-(2-(1-Phenyl-3-(trifluoromethyl)-1H-pyrazole-4-carboxamido)ethyl)-6-(5-(trifluoromethyl)-1,2,4-oxadiazol-3-yl)nicotinamide] | > 7.00
17 | CC(=O)Nc1ccc(C(=O)NCCNC(=O)c2cn(-c3ccccc3)nc2C(F)(F)F)cn1 [Example A99, 6-Acetamido-N-(2-(1-phenyl-3-(trifluoromethyl)-1H-pyrazole-4-carboxamido)ethyl)nicotinamide] | 5.00 to 6.00
18 | CC(C)c1nc(-c2ccc(C(=O)NCCNC(=O)c3cn(-c4ccccc4)nc3C(F)(F)F)cn2)no1 [Example A103, 6-(5-isopropyl-1,2,4-oxadiazol-3-yl)-N-(2-(1-phenyl-3-(trifluoromethyl)-1H-pyrazole-4-carboxamido)ethyl)nicotinamide] | > 7.00
19 | CCOc1ccc(C(=O)NCCNC(=O)c2cn(-c3ccc4[nH]ccc4c3)nc2C(F)(F)F)cc1 [Example B1, N-(2-(4-Ethoxybenzamido)ethyl)-1-(1H-indol-5-yl)-3-(trifluoromethyl)-1H-pyrazole-4-carboxamide] | > 7.00
20 | CCOc1ccc(C(=O)N2CCCC2CNC(=O)c2cn(-c3ccccc3)nc2C(F)(F)F)cc1 (stereo not shown) [Example C11, N-((1-(4-ethoxybenzoyl)pyrrolidin-2-yl)methyl)-1-phenyl-3-(trifluoromethyl)-1H-pyrazole-4-carboxamide] | 5.00 to 6.00
21 | CCOc1ccc(C(=O)NCCNC(=O)c2cc(-c3ccccc3)cc(-c3ccccc3)n2)cc1 [Example D1, N-(2-(4-Ethoxybenzamido)ethyl)-4,6-diphenylpicolinamide] | 5.00 to 6.00
22 | CCOc1ccc(C(=O)NCCNC(=O)c2nn(-c3ccccc3)nc2C)cc1 [Example D6, N-(2-(4-ethoxybenzamido)ethyl)-5-methyl-2-phenyl-1H-1,2,3-triazole-4-carboxamide] | 5.00 to 6.00
